Tests used:
Assay in all cases: Cysteine liganding, probe competition
Format in all cases: binding
[1] = molecular target: T1, ZC3HC1 Nuclear-interacting partner of ALK (Homo sapiens, UniProt Q86WB0); conditions: ZC3HC1 Res# 406, uniprot Q86WB0
T1 construct: Cells were resuspended in cold PBS on ice and sonicated with a probe sonicator to achieve lysis; endogenous in cells
Outline: (§1)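 Probe competition in native proteome: 5 mg/ml lysate, compound 1 hr 25° C, then desthiobiotin iodoacetamide (10 mM stock) 1 hr 25° C; acetone ppt, urea/DTT reduction, iodoacetamide alkylation, trypsin, streptavidin pull-down.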

[2] = molecular target: T2, RNF213 E3 ubiquitin-protein ligase RNF213 (Homo sapiens, UniProt Q63HN8)
T2 construct: Cells were resuspended in cold PBS on ice and sonicated with a probe sonicator to achieve lysis; endogenous in cells
Outline: as §1

[3] = molecular target: T3, VDAC2 Voltage-dependent anion-selective channel protein (Homo sapiens, UniProt P45880)
T3 construct: Cells were resuspended in cold PBS on ice and sonicated with a probe sonicator to achieve lysis; endogenous in cells
Outline: as §1

[4] = molecular target: T4, SRRM2 Serine/arginine repetitive matrix protein 2 (Homo sapiens, UniProt Q9UQ35)
T4 construct: Cells were resuspended in cold PBS on ice and sonicated with a probe sonicator to achieve lysis; endogenous in cells
Outline: as §1

VPRBP Protein VPRBP = molecular target: T5, VPRBP Protein VPRBP (Homo sapiens, UniProt Q9Y4B6)
T5 construct: Cells were resuspended in cold PBS on ice and sonicated with a probe sonicator to achieve lysis; endogenous in cells
Outline: as §1

[5] = molecular target: T6, TRIP12 E3 ubiquitin-protein ligase TRIP12 (Homo sapiens, UniProt Q14669); conditions: TRIP12 Res# 1959, uniprot Q14669
T6 construct: Cells were resuspended in cold PBS on ice and sonicated with a probe sonicator to achieve lysis; endogenous in cells
Outline: as §1

[6] = molecular target: T7, RNF2 E3 ubiquitin-protein ligase RING2 (Homo sapiens, UniProt Q99496)
T7 construct: Cells were resuspended in cold PBS on ice and sonicated with a probe sonicator to achieve lysis; endogenous in cells
T7 sequence (Q99496 1-336): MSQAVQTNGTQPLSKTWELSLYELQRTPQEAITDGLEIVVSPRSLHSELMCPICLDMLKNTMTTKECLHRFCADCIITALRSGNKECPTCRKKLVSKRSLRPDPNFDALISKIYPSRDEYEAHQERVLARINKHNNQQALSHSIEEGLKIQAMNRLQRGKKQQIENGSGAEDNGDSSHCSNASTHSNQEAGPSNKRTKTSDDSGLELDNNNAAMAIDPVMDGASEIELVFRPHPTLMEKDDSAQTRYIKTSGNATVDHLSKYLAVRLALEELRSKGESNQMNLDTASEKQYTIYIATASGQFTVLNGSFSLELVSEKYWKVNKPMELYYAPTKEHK
Outline: as §1

[7] = molecular target: T8, MAP1B Microtubule-associated protein 1B (Homo sapiens, UniProt P46821)
T8 construct: Cells were resuspended in cold PBS on ice and sonicated with a probe sonicator to achieve lysis; endogenous in cells
Outline: as §1

[8] = molecular target: T9, GCN1L1 Translational activator GCN1 (Homo sapiens, UniProt Q92616)
T9 construct: 200 μL of lysate containing 5 mg/ml proteome was treated with 2 μL of 100× compound stock; endogenous in cells
Outline: as §1

T9 sequence (Q92616 whole entry): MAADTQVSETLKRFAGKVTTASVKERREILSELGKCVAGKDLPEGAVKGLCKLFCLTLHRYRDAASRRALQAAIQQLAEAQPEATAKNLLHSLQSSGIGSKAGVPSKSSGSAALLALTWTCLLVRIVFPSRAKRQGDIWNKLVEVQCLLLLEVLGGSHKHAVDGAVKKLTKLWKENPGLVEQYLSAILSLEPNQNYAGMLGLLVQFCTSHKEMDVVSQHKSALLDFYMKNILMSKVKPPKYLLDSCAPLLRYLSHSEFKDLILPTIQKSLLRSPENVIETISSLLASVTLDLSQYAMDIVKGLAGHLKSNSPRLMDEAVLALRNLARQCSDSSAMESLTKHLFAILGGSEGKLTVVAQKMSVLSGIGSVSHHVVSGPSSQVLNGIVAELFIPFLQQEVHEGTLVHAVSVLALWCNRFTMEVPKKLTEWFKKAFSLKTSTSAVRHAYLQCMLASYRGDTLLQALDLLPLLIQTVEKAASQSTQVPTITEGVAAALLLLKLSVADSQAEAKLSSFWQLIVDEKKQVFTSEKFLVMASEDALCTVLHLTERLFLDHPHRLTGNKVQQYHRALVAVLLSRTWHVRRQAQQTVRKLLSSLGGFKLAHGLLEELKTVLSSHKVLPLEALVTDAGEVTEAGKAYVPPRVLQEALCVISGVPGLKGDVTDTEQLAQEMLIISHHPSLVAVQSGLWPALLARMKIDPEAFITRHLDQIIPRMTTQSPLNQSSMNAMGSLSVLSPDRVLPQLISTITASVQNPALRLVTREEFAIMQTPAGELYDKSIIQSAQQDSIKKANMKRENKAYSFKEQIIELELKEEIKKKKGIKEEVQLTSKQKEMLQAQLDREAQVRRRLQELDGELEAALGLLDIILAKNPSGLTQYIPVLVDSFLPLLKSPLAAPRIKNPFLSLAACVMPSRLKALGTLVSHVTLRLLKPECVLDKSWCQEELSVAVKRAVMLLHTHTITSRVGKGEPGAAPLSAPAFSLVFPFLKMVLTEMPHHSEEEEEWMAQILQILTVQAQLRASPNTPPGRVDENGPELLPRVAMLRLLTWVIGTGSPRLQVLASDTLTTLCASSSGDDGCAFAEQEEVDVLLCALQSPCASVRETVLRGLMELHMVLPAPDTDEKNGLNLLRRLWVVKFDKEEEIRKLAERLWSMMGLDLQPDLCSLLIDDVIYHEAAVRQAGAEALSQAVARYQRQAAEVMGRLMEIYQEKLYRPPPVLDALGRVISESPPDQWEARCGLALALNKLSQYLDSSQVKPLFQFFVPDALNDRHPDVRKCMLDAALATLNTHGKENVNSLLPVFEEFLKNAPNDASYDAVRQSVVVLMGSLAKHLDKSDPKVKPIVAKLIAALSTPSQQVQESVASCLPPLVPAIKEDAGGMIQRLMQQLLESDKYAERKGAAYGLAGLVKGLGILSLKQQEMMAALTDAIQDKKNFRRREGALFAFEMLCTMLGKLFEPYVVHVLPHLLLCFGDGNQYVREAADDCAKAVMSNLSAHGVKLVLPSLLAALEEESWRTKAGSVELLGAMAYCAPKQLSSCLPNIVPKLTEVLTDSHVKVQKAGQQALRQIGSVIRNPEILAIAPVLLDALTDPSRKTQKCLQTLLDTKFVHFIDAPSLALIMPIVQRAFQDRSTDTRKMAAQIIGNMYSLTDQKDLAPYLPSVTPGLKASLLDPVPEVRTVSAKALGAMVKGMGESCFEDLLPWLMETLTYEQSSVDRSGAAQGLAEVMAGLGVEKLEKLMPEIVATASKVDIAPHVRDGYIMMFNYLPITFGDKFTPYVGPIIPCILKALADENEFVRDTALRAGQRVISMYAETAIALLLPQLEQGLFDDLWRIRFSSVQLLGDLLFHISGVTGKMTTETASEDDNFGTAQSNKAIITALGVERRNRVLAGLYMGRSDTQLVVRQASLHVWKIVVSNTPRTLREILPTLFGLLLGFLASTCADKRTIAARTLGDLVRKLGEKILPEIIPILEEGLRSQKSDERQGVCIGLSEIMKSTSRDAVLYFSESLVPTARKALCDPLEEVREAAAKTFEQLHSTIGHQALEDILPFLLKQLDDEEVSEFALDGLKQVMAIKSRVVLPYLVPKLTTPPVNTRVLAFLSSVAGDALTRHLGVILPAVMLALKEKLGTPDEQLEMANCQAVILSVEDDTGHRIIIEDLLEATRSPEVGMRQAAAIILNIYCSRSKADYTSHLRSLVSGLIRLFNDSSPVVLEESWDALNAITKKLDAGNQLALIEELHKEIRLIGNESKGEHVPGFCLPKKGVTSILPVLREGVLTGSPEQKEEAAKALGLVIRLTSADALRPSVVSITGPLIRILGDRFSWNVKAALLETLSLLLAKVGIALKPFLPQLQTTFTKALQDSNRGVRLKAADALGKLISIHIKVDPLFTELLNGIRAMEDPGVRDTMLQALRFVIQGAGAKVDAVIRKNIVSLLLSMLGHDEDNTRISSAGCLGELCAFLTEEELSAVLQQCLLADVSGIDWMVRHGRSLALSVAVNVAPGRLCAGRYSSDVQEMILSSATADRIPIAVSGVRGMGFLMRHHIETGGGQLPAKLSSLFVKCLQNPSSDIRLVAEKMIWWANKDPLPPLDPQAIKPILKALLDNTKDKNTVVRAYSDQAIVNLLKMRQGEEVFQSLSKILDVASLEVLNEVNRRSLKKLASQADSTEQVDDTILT
T8 sequence (P46821 whole entry): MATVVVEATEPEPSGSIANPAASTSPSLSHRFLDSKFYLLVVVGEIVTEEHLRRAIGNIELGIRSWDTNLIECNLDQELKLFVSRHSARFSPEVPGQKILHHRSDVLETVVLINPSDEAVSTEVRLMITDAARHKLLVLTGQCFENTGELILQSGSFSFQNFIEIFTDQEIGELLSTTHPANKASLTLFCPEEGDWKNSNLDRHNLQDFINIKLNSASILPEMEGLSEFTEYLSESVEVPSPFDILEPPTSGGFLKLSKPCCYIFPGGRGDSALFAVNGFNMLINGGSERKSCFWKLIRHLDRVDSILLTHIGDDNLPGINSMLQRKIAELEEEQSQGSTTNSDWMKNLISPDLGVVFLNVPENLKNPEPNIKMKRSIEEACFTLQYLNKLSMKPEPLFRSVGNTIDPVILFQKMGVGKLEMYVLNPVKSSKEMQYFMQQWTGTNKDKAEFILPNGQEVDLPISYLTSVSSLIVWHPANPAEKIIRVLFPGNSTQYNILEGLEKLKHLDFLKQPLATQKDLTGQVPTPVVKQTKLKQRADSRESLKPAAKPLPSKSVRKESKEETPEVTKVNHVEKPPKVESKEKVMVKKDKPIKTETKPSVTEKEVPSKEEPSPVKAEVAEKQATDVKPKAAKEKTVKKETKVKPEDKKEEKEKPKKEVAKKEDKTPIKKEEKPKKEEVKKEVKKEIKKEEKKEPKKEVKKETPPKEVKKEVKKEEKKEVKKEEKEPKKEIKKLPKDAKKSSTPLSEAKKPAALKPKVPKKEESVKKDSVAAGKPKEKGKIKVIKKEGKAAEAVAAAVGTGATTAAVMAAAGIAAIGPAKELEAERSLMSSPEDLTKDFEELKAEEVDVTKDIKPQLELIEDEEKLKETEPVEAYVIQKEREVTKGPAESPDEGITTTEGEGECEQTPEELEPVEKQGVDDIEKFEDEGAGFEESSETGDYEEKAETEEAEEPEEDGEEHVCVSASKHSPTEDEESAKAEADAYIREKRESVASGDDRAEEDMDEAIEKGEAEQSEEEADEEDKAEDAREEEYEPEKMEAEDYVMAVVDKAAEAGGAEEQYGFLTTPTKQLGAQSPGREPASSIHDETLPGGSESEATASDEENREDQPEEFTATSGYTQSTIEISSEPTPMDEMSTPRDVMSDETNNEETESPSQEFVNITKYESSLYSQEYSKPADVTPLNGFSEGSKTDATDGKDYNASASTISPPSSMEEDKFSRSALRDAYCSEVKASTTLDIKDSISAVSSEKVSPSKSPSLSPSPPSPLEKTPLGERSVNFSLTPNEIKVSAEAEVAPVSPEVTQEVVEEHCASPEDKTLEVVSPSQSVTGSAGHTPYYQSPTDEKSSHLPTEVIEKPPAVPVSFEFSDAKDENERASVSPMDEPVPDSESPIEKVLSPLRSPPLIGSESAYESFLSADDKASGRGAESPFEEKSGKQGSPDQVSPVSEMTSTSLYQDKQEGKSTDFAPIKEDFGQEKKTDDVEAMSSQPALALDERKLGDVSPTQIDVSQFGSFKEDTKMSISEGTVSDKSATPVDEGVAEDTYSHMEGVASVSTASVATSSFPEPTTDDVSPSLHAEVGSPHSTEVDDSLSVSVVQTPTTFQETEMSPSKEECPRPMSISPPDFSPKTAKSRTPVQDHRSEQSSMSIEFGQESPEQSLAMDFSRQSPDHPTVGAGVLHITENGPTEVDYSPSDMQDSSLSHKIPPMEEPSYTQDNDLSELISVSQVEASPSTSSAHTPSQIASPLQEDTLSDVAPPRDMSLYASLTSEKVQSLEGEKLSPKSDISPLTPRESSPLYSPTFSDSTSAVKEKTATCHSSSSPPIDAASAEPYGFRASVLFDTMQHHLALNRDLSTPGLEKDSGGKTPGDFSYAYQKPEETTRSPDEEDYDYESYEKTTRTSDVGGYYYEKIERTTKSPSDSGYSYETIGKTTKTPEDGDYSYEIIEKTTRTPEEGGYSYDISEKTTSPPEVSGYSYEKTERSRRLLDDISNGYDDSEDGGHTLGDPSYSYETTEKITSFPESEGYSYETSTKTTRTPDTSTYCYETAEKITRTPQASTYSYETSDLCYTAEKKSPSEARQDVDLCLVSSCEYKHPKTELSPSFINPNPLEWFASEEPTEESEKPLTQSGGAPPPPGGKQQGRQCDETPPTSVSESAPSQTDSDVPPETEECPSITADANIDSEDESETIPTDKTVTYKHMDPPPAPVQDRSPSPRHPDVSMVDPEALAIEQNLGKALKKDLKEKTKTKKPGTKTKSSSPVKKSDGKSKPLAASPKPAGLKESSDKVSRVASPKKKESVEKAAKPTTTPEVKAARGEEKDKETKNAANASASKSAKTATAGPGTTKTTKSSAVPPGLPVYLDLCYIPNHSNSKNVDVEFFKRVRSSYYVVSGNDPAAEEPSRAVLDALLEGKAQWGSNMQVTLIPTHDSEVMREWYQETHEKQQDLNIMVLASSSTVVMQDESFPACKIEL

COc1ccc2c(c1)CCCN2C(=O)CCl [KB02]
Liganded [1]: YES | Liganded ([2]; RNF213 Res# 1510, uniprot Q63HN8): YES | Liganded ([2]; RNF213 Res# 4258, uniprot Q63HN8): YES | Liganded ([2]; RNF213 Res# 4407, uniprot Q63HN8): YES | Liganded ([3]; VDAC2 Res# 210, uniprot P45880): YES | Liganded ([3]; VDAC2 Res# 227, uniprot P45880): YES | Liganded ([4]; SRRM2 Res# 1029, uniprot Q9UQ35): YES | Liganded ([4]; SRRM2 Res# 1036, uniprot Q9UQ35): YES | Liganded (VPRBP Protein VPRBP; VPRBP Res# 69, uniprot Q9Y4B6): YES | Liganded (VPRBP Protein VPRBP; VPRBP Res# 967, uniprot Q9Y4B6): YES | Liganded [5]: YES

O=C(CCl)Nc1cc(C(F)(F)F)cc(C(F)(F)F)c1 [KBO3]
Liganded ([6]; RNF2 Res# 54, uniprot Q99496): YES | 100 Max ([6]; uniprot Q99496): 18.1 | 100 ave ([6]; uniprot Q99496): 0.5 | 500 Max ([6]; uniprot Q99496): 76.8 | 500 ave ([6]; uniprot Q99496): 76.8 | Liganded ([7]; MAP1B Res# 382, uniprot P46821): YES | 100 ave ([7]; uniprot P46821): 37.5 | 500 ave ([7]; uniprot P46821): 75.17 | 500 Max ([7]; uniprot P46821, in % (unit assumed)): 75.17 | 100 Max ([7]; uniprot P46821, unit assumed): 37.5% | Liganded ([8]; GCN1L1 Res# 648, uniprot Q92616): YES | 100 Max ([8]; uniprot Q92616): 28.59 | 100 ave ([8]; uniprot Q92616): 25.61 | 500 Max ([8]; uniprot Q92616): 80.3 | 500 ave ([8]; uniprot Q92616): 78.745

Source: patent publication US20200239530A1, “COMPOUNDS AND METHODS OF MODULATING PROTEIN DEGRADATION” (Vividion Therapeutics, Inc., priority 2017, published 2020)
